# What was measured:
# Type in all cases: functional
# [1] = Antioxidant activity against copper-induced lipid peroxidation in human LDL assessed as inhibition of malondialdehyde formation at 100 uM relative to control; set-up: scale not given: the % may be the effect or the level left
# [2] = Antioxidant activity against copper-induced lipid peroxidation in human LDL assessed as inhibition of malondialdehyde formation at 2 uM relative to control; set-up: scale not given: the % may be the effect or the level left
# [3] = Antioxidant activity against copper-induced lipid peroxidation in human LDL assessed as inhibition of malondialdehyde formation at 200 uM relative to control; set-up: scale not given: the % may be the effect or the level left
# [4] = Antioxidant activity against copper-induced lipid peroxidation in human LDL assessed as inhibition of malondialdehyde formation at 20 uM relative to control; set-up: scale not given: the % may be the effect or the level left
# [5] = Antioxidant activity against copper-induced lipid peroxidation in human LDL assessed as inhibition of malondialdehyde formation at 5 uM relative to control; set-up: scale not given: the % may be the effect or the level left
# [6] = Antioxidant activity against copper-induced lipid peroxidation in human LDL assessed as inhibition of malondialdehyde formation at 10 uM relative to control; set-up: scale not given: the % may be the effect or the level left
# [7] = Antioxidant activity against copper-induced lipid peroxidation in human LDL assessed as inhibition of malondialdehyde formation at 50 uM relative to control; set-up: scale not given: the % may be the effect or the level left
# [8] = Antioxidant activity against copper-induced lipid peroxidation in human LDL assessed as inhibition of malondialdehyde formation
IC50 [8] [µM],Structure (SMILES),Activity [1] [%],Activity [2] [%],Activity [3] [%],Activity [4] [%],Activity [5] [%],Activity [6] [%],Activity [7] [%]
–,Cn1cncc1C[C@H](NC(=O)CCN)C(=O)O,12.2,0.23,18.7,2.14,0.51,1.05,8.55
–,OC[C@H]1O[C@@H]2O[C@H]3[C@H](O)[C@@H](O)[C@@H](O[C@H]4[C@H](O)[C@@H](O)[C@@H](O[C@H]5[C@H](O)[C@@H](O)[C@@H](O[C@H]6[C@H](O)[C@@H](O)[C@@H](O[C@H]7[C@H](O)[C@@H](O)[C@@H](O[C@H]8[C@H](O)[C@@H](O)[C@@H](O[C@H]1[C@H](O)[C@H]2O)O[C@@H]8CO)O[C@@H]7CO)O[C@@H]6CO)O[C@@H]5CO)O[C@@H]4CO)O[C@@H]3CO,6.94,0.11,10.7,1.26,0.38,0.65,3.87
41.6,Cn1cncc1CC(NC(=O)CCN[C@@H]1[C@@H](O)[C@H]2O[C@H]3[C@H](O)[C@@H](O)[C@@H](O[C@H]4[C@H](O)[C@@H](O)[C@@H](O[C@H]5[C@H](O)[C@@H](O)[C@@H](O[C@H]6[C@H](O)[C@@H](O)[C@@H](O[C@H]7[C@H](O)[C@@H](O)[C@@H](O[C@H]8[C@H](O)[C@@H](O)[C@@H](O[C@@H]1[C@@H](CO)O2)O[C@@H]8CO)O[C@@H]7CO)O[C@@H]6CO)O[C@@H]5CO)O[C@@H]4CO)O[C@@H]3CO)C(=O)O (some centres not stated),–,–,–,–,–,–,–
88.7,Cn1cncc1CC(NC(=O)CCNC[C@H]1O[C@@H]2O[C@H]3[C@H](O)[C@@H](O)[C@@H](O[C@H]4[C@H](O)[C@@H](O)[C@@H](O[C@H]5[C@H](O)[C@@H](O)[C@@H](O[C@H]6[C@H](O)[C@@H](O)[C@@H](O[C@H]7[C@H](O)[C@@H](O)[C@@H](O[C@H]8[C@H](O)[C@@H](O)[C@@H](O[C@H]1[C@H](O)[C@H]2O)O[C@@H]8CO)O[C@@H]7CO)O[C@@H]6CO)O[C@@H]5CO)O[C@@H]4CO)O[C@@H]3CO)C(=O)O (some centres not stated),–,–,–,–,–,–,–
23.4,O=C(CCN[C@@H]1[C@@H](O)[C@H]2O[C@H]3[C@H](O)[C@@H](O)[C@@H](O[C@H]4[C@H](O)[C@@H](O)[C@@H](O[C@H]5[C@H](O)[C@@H](O)[C@@H](O[C@H]6[C@H](O)[C@@H](O)[C@@H](O[C@H]7[C@H](O)[C@@H](O)[C@@H](O[C@H]8[C@H](O)[C@@H](O)[C@@H](O[C@@H]1[C@@H](CO)O2)O[C@@H]8CO)O[C@@H]7CO)O[C@@H]6CO)O[C@@H]5CO)O[C@@H]4CO)O[C@@H]3CO)NC(Cc1cnc[nH]1)C(=O)O (some centres not stated),–,–,–,–,–,–,–

# — ChEMBL document CHEMBL1149781, “New glycosidic derivatives of histidine-containing dipeptides with antioxidant properties and resistant to carnosinase activity” (Eur J Med Chem, 2008)
